According to patent EP3238720A1, “ANTI-METHANOGENIC COMPOSITIONS AND USES THEREOF” (DSM IP Assets B.V., priority 2016, dated 2017):
Where two headings read alike, the source gives them in different places.

How the values were obtained:
MCR (MCR-I) [1] = target: T1, MCR (MCR-I) (Methanothermobacter marburgensis, UniProt P11558+P11560+P11562); format: biochemical, M. marburgensis; details: for Methane reduction: 0.1 µM 3-NOP vs no inhibitor
MCR (MCR-I) [2] = target: T1, MCR (MCR-I); format: biochemical, M. marburgensis; details: 15 min at room temperature
[3] = test system: Methanobacterium bryantii; assay: Growth/methane production of methanogen cultures; format: cell-based; details: after 2 days, maintained over 12 days
Description: (§1) The methanogens outlined in table 3 were grown in 5 mL of the respective culture medium at 37°C in 15-mL Hungate tubes sealed with butyl rubber septum and aluminum seals. The 8 mL gas phase was 80% H2/20% CO2 at 2 x 10^5 Pa pressure. In the case of M. stadtmanae and M. barkeri H2 and methanol (100 mM) was the energy source. Methanogens growth was followed by CH4 production using a flame ionization-detector GC (0.5 ml of gas from headspace, manual injection in the GC (HP Hewlett 5890, Packard Series II, Waldbronn, Germany) using a 1 mL Sample-Lock® syringe (Hamilton, Nevada, USA). The concentration of CH4 was determined using a standard curve generated by injecting different volumes of 99.9 % pure CH4 prior to and after the injection of samples. Three consecutive 5 mL batches of incubations were conducted. In each batch the following treatments were used in triplicate: (i) blanks, only media; (ii) controls, cultures in the absence of inhibitor; (iii) 3-NOP added to a final concentration of 0.5 µM, 5 µM, 50 µM, 100 µM, 250 µM and 500 µM. 3-NOP was added on day 2 after culture inoculation with 0.5 mL of an actively growing culture. The growth was measured over 12 days every 2 days coinciding with new pressurization of headspace to 2 bar with 80:20 H2:CO2 gas mixture. […] Table 3: Methanogens

[4] = test system: Methanobrevibacter millerae; assay: Growth/methane production of methanogen cultures; format: cell-based; details: after 2 days, maintained over 12 days
Description: as §1

[5] = test system: Methanobrevibacter smithii; assay: Growth/methane production of methanogen cultures; format: cell-based; details: after 2 days, maintained over 12 days
Description: as §1

Methanomicrobium mobile = assay: Growth/methane production of methanogen cultures; format: cell-based; details: after 2 days, maintained over 12 days
Description: as §1

Methanosarcina barkeri = assay: Growth/methane production of methanogen cultures; format: cell-based; details: H2 and methanol (100 mM), after 2 days, maintained over 12 days
Description: as §1

[6] = test system: Methanosphaera stadtmanae; assay: Growth/methane production of methanogen cultures; format: cell-based; details: H2 and methanol (100 mM), after 2 days, maintained over 12 days
Description: as §1

[7] = test system: Methanothermobacter wolfeii; assay: Growth/methane production of methanogen cultures; format: cell-based; details: after 2 days, maintained over 12 days
Description: as §1

T1 sequence (P11558 2-550 limits assumed): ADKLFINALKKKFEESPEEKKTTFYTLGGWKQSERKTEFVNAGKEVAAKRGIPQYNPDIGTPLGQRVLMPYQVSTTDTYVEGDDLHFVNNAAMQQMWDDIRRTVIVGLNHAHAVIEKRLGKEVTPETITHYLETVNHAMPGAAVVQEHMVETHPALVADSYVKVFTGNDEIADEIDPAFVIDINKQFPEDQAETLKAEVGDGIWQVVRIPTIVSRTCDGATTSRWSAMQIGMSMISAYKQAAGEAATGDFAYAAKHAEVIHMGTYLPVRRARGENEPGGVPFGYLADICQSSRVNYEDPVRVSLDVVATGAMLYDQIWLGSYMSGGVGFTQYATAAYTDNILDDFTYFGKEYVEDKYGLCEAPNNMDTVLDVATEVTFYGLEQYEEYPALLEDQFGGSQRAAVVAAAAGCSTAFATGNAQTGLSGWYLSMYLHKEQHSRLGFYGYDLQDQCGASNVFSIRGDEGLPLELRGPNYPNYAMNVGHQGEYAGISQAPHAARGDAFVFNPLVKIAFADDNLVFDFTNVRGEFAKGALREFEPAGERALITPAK
T1 sequence (P11560 2-443 limits assumed): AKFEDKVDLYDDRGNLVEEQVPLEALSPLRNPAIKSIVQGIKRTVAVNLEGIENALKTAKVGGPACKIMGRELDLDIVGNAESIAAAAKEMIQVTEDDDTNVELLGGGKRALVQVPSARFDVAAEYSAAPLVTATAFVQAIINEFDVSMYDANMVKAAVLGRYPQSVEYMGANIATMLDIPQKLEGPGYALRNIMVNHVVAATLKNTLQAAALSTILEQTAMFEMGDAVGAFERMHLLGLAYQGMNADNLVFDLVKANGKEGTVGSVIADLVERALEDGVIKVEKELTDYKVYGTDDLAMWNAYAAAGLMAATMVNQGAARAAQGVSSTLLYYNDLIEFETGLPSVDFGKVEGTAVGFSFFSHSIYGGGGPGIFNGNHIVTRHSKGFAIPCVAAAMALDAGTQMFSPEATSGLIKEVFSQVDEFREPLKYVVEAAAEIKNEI
T1 sequence (P11562 2-249 limits assumed): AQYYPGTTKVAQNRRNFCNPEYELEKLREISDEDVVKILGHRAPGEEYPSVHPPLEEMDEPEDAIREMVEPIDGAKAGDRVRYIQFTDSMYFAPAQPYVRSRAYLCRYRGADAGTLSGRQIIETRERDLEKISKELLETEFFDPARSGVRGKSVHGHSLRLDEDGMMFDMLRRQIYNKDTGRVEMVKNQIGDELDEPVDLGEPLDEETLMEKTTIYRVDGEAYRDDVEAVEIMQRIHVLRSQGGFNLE

SMILES: O=[N+]([O-])OCCCO [3-NOP, 3-Nitrooxypropanol]
- reduces the methane concentration and thus the MCR activity (MCR (MCR-I) [1]; 0.1 µM 3-NOP): about 50%
- Methane reduction (MCR (MCR-I) [1]; 3min): -28%
- Methane reduction (MCR (MCR-I) [1]; 6min): -38%
- Methane reduction (MCR (MCR-I) [1]; 9min): -47%
- Methane concentration (MCR (MCR-I) [1]; 0.1 µM 3-NOP, 3min, no inhibitor 0.095): 0.068 µM
- Methane concentration (MCR (MCR-I) [1]; 0.1 µM 3-NOP, 6min, no inhibitor 0.132): 0.082 µM
- Methane concentration (MCR (MCR-I) [1]; 0.1 µM 3-NOP, 9min, no inhibitor 0.163): 0.086 µM
- MCR activity was reduced (MCR (MCR-I) [2]; 10 µM of 3-NOP): 50%
- inhibition of the enzyme (MCR (MCR-I) [2]; > 30 µM of 3-NOP): almost complete inhibition
- lowest concentration of 3-NOP able to significantly decrease the growth/ methane production (>50%) [3]: 1 µM
- lowest concentration of 3-NOP able to significantly decrease the growth/ methane production (>50%) [4]: 2.5 µM
- lowest concentration of 3-NOP able to significantly decrease the growth/ methane production (>50%) [5]: 2.5 µM
- lowest concentration of 3-NOP able to significantly decrease the growth/ methane production (>50%) (Methanomicrobium mobile): 50 µM
- lowest concentration of 3-NOP able to significantly decrease the growth/ methane production (>50%) (Methanosarcina barkeri): 50 µM
- lowest concentration of 3-NOP able to significantly decrease the growth/ methane production (>50%) [6]: 5 µM
- lowest concentration of 3-NOP able to significantly decrease the growth/ methane production (>50%) [7]: < 1 µM
